Ends that are not written are not given here. * marks the point of attachment. Mu = morpholinocarbonyl, O=C(N1CCOCC1)*
How the values were obtained:
[1] = system: human MDA-MB231 breast cancer xenografts; assay: Antitumor effect in breast cancer xenografts; format: in vivo, nude mice; conditions: FIG. 6 legend, values not given
[2] = system: FAP-transfected MDA-MB-231 cells; assay: Hydrolysis of quenched peptides by FAP-transfected MDA-MB-231 cells; format: cell-based, human; conditions: 50 μM in serum containing media
Excerpt: Human breast cancer cell lines MCF-7 and MDA-MB-231 were selected for transfection because the cells were negative for FAP when grown under standard culture conditions (25). Details of transfection methodology are described in methods section of Specific Aim 2 below. Briefly, a 2.2 kb PCR fragment was purified by gel electrophoresis, digested with NheI and cloned into bicistronic pIRES vector (kindly provided by Dr. Ben Park, The Johns Hopkins University) previously digested with Nhe 1. Final construct was designated as pFAPIRES. Sequencing primers were designed for the entire length of the gene and were confirmed to be correct. The cells were transfected using Fugene 6 (Roche). Control transfections were done on the same lines with the empty IRES vector. Cells were characterized for production of FAP by Flow Cytometry (FIG. 17A-FIG. 17D).
(§1) Subsequently, one of the MDA-MB-231 clones was used to evaluate FAP activity in vitro. In this assay cells were grown in serum containing media to 70% confluency followed by addition of fluorescence quenched peptides into the media at concentration of 50 μM. As a control cell lines transfected with the carboxypeptidase PSMA using the same vector system were used. Cells were incubated with three different FAP substrates, FIG. 18.

[3] = system: control cells transfected with PSMA; assay: Hydrolysis of quenched peptides by control cells transfected with PSMA; format: cell-based, human; conditions: 50 μM
Experimental: as §1

[4] = target: T1, His-tagged FAP (Homo sapiens, UniProt Q12884); assay: FAP hydrolysis of MCA/DNP fluorescence quenched peptide substrates; format: biochemical
T1 construct: the extracellular domain of FAP was cloned with a His-6 tag; made in house
T1 sequence (Q12884 26-760 limits assumed): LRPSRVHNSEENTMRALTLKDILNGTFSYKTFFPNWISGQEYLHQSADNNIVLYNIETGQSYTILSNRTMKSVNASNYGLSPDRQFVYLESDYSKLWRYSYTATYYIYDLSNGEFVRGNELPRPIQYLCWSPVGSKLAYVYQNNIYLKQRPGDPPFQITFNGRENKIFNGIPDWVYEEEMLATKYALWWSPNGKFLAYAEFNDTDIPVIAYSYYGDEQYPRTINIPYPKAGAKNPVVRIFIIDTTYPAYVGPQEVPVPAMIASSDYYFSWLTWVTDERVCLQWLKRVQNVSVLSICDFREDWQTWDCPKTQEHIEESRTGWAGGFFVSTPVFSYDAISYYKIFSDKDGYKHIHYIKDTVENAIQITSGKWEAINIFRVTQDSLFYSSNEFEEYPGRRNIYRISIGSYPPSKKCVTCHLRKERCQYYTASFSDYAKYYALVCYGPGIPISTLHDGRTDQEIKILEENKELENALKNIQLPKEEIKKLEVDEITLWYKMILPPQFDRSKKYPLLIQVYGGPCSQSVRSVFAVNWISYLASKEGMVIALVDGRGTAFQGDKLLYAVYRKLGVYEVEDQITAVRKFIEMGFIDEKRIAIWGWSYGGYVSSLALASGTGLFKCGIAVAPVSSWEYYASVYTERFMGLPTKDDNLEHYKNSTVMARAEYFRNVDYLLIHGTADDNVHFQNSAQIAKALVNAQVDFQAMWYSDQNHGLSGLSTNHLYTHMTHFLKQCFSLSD
Experimental: Quenched substrates were prepared by using the MCA/DNP fluorophore/quencher pair. Synthesis of peptides was done using standard Fmoc solid phase coupling on NovaTag™ Dnp resin with a substitution level of 0.4 mmole/g (Novabiochem, San Diego, Calif.). N-terminal capping was done twice overnight with N-(7-methoxycoumarin-4-acetyloxy)succinimide (MCA-Osu) and 1-Hydroxybenzotriazole (HOBt) in N-Methyl 2 Pyrrolidone (NMP). Peptides were cleaved with 95% TFA, 2.5% TIS and 2.5% water. The purity and mass of each quenched peptide was confirmed by Reversed Phase-HPLC and MALDI-TOF analysis.
Quenched peptide substrates were weighed and dissolved in DMSO to obtain a final concentration of 50 mM and were stored at −20° C. until later use. Dilutions (e.g. 200 μM, 100 μM, 50 μM, 25 μM) were prepared in duplicates in the reaction buffer. His-tagged FAP was added to a final concentration of 5 nM. Release of free MCA was measured at excitation 355 nm and emission 460 nm in a 96-well fluorescence plate reader. Controls consisted of substrates in buffer±BSA.
On the basis of the 8.5 kDa gelatin cleavage map a series of fluorescence quenched substrates were prepared (colored sequences in Table 3) by using the Methoxycoumarin (MCA)/Dinitrophenyl (DNP) FRET combination (52). […]

Row | Km ([4]; FAP hydrolysis of quenched substrate, Michaelis Menten) [µM] | hydrolysis by FAP ([4]; substrate at 25 μM) | Substance | antitumor effect [1] | hydrolysis by FAP-positive cells [2] | hydrolysis by control media [3]
1 | – | – | FAP activated prodrug: FAP selective peptide Mu-SGEAGPA (Mu = morpholinocarbonyl) coupled to 12 ADT (12-aminododecanoyl thapsigargin) (not fully specified (C-terminus); printed as Mu-SGEAGPA; also: coupled to 12ADT (12-aminododecanoyl thapsigargin)) | antitumor effect | – | –
2 | ~50 | rapidly hydrolyzed | VGPAGK (also: MCA/DNP quench labels) [tested as MCA/DNP fluorescence quenched substrate] | – | appreciably hydrolyzed | relatively stable to hydrolysis
